Consider three molecules from publication PMC11469747 (Clinical and Translational Science, 2024).

Usually IC50 stands for the concentration that gives 50% inhibition. Lower therefore signals higher potency. Broadly, the Cmax is the highest concentration seen after dosing.

The structures appear in SMILES notation.

The nature of data set [1]: Metabolic stability study in HLM. The data set is classed as in vitro ADME, human. The conditions noted are these: for stability in the negative control assay: without HLM, NADPH regenerating system and UDPGA, up to 120 min, 37°C.
The test system of a further data set is CYP3A4/5. The data set is described as follows: Phase I enzyme determination in HLM with CYP-specific inhibitor ketoconazole. The data set is classed as in vitro ADME, human. The conditions noted are these: HLM with six CYP-specific inhibitors.
For data set [2], the system named is CYP1A2, CYP2B6, CYP2C8, CYP2C9, CYP2D6, CYP2E1, CYP3A4/5. Description: Inhibitory DDI evaluation, cocktail incubation in HLM, all probe reactions. The note with it: human, pooled human liver microsomes. It is filed as in vitro ADME. Background: Microsomes from liver hold many membrane-bound enzymes, among them those of drug oxidation.
The next data set deals with T1, CYP1A2 (Homo sapiens, UniProt P05177).
T1 sequence (P05177 1-516): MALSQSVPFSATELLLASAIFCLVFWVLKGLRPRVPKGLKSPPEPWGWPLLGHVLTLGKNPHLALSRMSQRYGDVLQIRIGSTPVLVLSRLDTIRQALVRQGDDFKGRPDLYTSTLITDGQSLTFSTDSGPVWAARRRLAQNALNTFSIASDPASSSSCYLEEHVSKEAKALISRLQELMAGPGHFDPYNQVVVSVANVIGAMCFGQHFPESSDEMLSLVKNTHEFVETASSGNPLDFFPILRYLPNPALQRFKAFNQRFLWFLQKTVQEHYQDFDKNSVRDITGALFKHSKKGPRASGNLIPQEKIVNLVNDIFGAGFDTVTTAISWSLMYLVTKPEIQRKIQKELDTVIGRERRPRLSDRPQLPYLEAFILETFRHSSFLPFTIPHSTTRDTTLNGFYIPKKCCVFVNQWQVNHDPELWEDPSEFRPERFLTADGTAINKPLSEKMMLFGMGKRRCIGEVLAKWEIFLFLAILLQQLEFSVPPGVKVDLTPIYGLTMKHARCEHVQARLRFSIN
The data set is described as follows: Inhibitory DDI evaluation, cocktail incubation in HLM. The data set is classed as in vitro ADME.

For the next data set, the target named is T2, CYP2B6 (Homo sapiens, UniProt P20813).
T2 sequence (P20813 1-491): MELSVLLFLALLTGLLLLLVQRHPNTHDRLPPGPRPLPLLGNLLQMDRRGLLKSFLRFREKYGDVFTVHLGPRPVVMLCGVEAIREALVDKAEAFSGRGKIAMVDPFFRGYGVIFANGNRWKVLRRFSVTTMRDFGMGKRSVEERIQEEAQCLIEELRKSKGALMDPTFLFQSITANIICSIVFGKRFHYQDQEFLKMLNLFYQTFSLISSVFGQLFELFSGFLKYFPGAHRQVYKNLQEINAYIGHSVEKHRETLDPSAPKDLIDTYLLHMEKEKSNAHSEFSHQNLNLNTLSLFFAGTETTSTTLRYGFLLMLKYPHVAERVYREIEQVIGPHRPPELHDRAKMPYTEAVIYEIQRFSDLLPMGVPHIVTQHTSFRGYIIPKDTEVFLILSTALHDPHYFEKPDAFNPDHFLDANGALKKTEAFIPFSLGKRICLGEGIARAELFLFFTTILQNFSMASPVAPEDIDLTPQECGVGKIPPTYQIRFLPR
Described as above. It is filed as in vitro ADME.

Data set [3] deals with T3, CYP2C8 (Homo sapiens, UniProt P10632).
T3 sequence (P10632 1-490): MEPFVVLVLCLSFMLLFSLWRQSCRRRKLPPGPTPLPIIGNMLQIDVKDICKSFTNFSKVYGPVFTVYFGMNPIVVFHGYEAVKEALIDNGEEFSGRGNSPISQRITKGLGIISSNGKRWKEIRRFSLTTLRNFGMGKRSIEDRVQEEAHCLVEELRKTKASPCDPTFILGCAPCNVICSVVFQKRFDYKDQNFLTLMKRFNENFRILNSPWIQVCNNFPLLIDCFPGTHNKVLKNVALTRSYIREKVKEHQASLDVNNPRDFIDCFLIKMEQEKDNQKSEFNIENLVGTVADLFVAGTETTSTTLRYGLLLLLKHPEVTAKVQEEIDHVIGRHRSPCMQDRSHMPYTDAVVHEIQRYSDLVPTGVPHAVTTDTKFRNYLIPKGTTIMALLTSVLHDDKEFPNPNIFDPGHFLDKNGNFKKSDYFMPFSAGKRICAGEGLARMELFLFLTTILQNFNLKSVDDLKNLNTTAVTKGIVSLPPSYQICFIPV
Described as above. The data set is classed as in vitro ADME.

In another data set the target is CYP2C9 (Homo sapiens, UniProt P11712). The data set is described as above. The data set is classed as in vitro ADME.
Chain of CYP2C9 (P11712 whole entry): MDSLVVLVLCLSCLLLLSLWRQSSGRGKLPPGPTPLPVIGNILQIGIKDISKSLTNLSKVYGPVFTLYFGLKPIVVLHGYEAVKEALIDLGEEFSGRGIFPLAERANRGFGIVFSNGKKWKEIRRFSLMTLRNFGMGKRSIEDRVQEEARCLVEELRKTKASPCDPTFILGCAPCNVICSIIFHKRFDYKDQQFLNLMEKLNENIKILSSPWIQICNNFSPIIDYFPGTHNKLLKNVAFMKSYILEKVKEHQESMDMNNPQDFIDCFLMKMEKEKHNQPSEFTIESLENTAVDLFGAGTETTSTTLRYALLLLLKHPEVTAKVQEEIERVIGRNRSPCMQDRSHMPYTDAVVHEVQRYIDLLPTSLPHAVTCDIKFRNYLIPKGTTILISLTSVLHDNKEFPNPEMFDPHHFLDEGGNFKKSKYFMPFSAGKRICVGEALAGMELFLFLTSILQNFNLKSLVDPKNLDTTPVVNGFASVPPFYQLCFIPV
Another data set concerns the target CYP2D6 (Homo sapiens, UniProt P10635). The data set is described as above. It is filed as in vitro ADME.
In the next data set the target is CYP2E1 (Homo sapiens, UniProt P05181). Described as above. The data set is classed as in vitro ADME.
Chain of CYP2E1 (P05181 whole entry): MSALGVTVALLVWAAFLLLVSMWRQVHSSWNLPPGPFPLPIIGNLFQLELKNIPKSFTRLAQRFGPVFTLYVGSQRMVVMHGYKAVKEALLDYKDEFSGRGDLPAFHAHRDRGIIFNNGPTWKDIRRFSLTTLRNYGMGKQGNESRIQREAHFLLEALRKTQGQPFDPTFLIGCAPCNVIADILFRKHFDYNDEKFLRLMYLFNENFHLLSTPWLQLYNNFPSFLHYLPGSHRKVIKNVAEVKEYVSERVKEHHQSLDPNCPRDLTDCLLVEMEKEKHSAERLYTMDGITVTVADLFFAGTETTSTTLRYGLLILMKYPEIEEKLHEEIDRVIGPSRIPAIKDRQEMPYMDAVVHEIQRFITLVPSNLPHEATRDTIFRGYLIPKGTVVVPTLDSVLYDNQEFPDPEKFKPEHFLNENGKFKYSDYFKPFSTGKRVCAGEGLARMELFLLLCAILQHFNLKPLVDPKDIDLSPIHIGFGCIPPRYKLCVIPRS
The conditions of data set [4]: cited from earlier work.
Data set [5] addresses T3, CYP2C8. The data set is described as follows: Phase I enzyme determination in HLM with CYP-specific inhibitor quercetin. The note with it: quercetin 10 μM.
Another data set relates to recombinant human UGT1A4. The data set is described as follows: Phase II enzyme determination with recombinant human UGT. It is filed as in vitro ADME. The note with it: rotundic acid 2.5 μM, UGT1A4 0.25 mg protein/mL, 20 min.
Another data set relates to recombinant human UGT1A1. The data set is described as above. The data set is classed as in vitro ADME. The conditions noted are these: rotundic acid 2.5 μM, UGT1A1 0.25 mg protein/mL, 20 min.
The next data set deals with recombinant human UGT1A6. The data set is described as above. It is filed as in vitro ADME. The note with it: rotundic acid 2.5 μM, UGT1A6 0.25 mg protein/mL, 20 min.
A further data set concerns recombinant human UGT1A9. The description is as above. The note with it: rotundic acid 2.5 μM, UGT1A9 0.25 mg protein/mL, 20 min. It is filed as in vitro ADME.
For another data set, the system named is recombinant human UGT2B7. The description is as above. The conditions noted are these: rotundic acid 2.5 μM, UGT2B7 0.25 mg protein/mL, 20 min. The data set is classed as in vitro ADME.

Chain of CYP2D6 (P10635 whole entry): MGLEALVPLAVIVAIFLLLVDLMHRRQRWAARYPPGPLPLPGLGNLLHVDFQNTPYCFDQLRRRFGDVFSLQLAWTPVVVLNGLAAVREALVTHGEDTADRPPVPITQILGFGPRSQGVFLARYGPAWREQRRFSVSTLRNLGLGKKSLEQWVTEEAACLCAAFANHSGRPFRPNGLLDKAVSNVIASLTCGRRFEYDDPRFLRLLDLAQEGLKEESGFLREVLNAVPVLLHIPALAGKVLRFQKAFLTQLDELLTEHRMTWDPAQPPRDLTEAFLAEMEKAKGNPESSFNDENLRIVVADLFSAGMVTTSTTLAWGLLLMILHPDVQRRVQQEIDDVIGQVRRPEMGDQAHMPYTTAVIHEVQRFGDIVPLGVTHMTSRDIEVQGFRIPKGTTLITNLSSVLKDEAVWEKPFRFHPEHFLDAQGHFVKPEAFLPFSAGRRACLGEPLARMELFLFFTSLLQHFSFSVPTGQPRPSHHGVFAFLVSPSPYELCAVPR

Regarding `C[C@@H]1CC[C@]2(C(=O)O[C@@H]3O[C@H](CO)[C@@H](O)[C@H](O)[C@H]3O)CC[C@]3(C)C(=CC[C@@H]4[C@@]5(C)CC[C@H](O)[C@@](C)(CO)[C@@H]5CC[C@]43C)[C@@H]2[C@]1(C)O` [pedunculoside], the “stability in the negative control assay” value in [1] is reported as “stable”. The enzymes catalyzing hydroxylation result with CYP3A4/5 was “mainly catalyzed by CYP3A4/5 and partly by CYP2C8”. The IC50 at 20 min in [2] is greater than 50 µM. In addition, the IC50 against CYP1A2, against CYP2B6, at CYP2C8 [3], against CYP2C9, against CYP2D6 and at CYP2E1 was greater than 50 µM each time. In addition, the Cmax in data set [4] (plasma, after oral administration, converted from ng/mL) was 154 to 768 nM. Moreover, the elimination half-life entry in data set [4] (rats, oral or intravenous) is reported as “short”.

As to `O=c1c(O)c(-c2ccc(O)c(O)c2)oc2cc(O)cc(O)c12` [quercetin], on CYP2C8 [5], the “generation rate of PE + O (1)” value is reported as “approximately 45%” and the “generation rate of PE + O (2)” value was “approximately 60%”.

`C[C@@H]1CC[C@]2(C(=O)O)CC[C@]3(C)C(=CC[C@@H]4[C@@]5(C)CC[C@H](O)[C@@](C)(CO)[C@@H]5CC[C@]43C)[C@@H]2[C@]1(C)O` [rotundic acid]: the “stability in the negative control assay” value in [1] is “stable”. The “metabolized after incubation for 120 min” value in data set [1] (~1 μM, HLM, UDPGA absent (UDPGA-)) is reported as ~ 50%. For the same molecule, the “compound remaining after 120 min” value in data set [1] (~1 μM, HLM, absence of the NADPH regeneration system (NADPH-)) is “approximately 25%”. In data set [1] (~1 μM, HLM, normal group, under regular conditions), the “rotundic acid remained after 120 min” value is “less than 10%”. In addition, in the data set on CYP3A4/5, the enzymes catalyzing hydroxylation result is “almost exclusively catalyzed by CYP3A4/5”. Besides, the “generation of glucuronidated rotundic acid” value in the data set on recombinant human UGT1A4 is “detected”; with recombinant human UGT1A1, “not detected”; in the data set on recombinant human UGT1A6 it was “not detected”; in the data set with recombinant human UGT1A9 it was “not detected”; in the data set with recombinant human UGT2B7, “not detected”. In addition, in data set [2], the IC50 at 20 min was greater than 50 µM. The IC50 at CYP1A2, against CYP2B6, against CYP2C8 [3], against CYP2C9, on CYP2D6 and against CYP2E1 was greater than 50 µM throughout.
